Test results from publication PMC12203311, “Design, synthesis, in silico and in vitro evaluation of pyrrole–indole hybrids as dual tubulin and aromatase inhibitors with potent anticancer activities” (RSC Advances, 2025).

Columns and labels:
Assay in all cases: NCI60 five-dose screen
[1] = system: NCI-H522; format: cell-based; conditions: Homo sapiens, NCI-H522, NSC lung cancer
[2] = system: DU-145; format: cell-based; conditions: Homo sapiens, DU-145, prostate cancer
[3] = system: TK-10; format: cell-based; conditions: Homo sapiens, TK-10, renal cancer
[4] = system: RPMI-8226; format: cell-based; conditions: Homo sapiens, RPMI-8226, leukemia
[5] = system: PC-3; format: cell-based; conditions: Homo sapiens, PC-3, prostate cancer
[6] = system: NCI-H460; format: cell-based; conditions: Homo sapiens, NCI-H460, NSC lung cancer
[7] = system: SNB-19; format: cell-based; conditions: Homo sapiens, SNB-19, CNS cancer
[8] = system: A549/ATCC; format: cell-based; conditions: Homo sapiens, NSC lung cancer
[9] = system: NCI/ADR-RES; format: cell-based, human; conditions: Homo sapiens, ovarian cancer
[10] = system: IGROV1; format: cell-based; conditions: Homo sapiens, IGROV-1; IGROV1, ovarian cancer
[11] = system: MDA-MB-231/ATCC; format: cell-based; conditions: Homo sapiens, breast cancer
[12] = system: EKVX; format: cell-based; conditions: Homo sapiens, NSC lung cancer
[13] = system: SK-MEL-28; format: cell-based; conditions: Homo sapiens, SK-MEL-28, melanoma
[14] = system: SK-MEL-2; format: cell-based; conditions: Homo sapiens, SK-MEL-2, melanoma
[15] = system: CAKI-1; format: cell-based; conditions: Homo sapiens, CAKI-1, renal cancer
[16] = system: UACC-257; format: cell-based; conditions: Homo sapiens, UACC-257, melanoma
[17] = system: BT-549; format: cell-based; conditions: Homo sapiens, BT-549, breast cancer
[18] = system: ACHN; format: cell-based; conditions: Homo sapiens, renal cancer
[19] = system: MCF7; format: cell-based; conditions: Homo sapiens, MCF7, breast cancer
[20] = system: SK-MEL-5; format: cell-based, human; conditions: Homo sapiens
[21] = system: OVCAR-8; format: cell-based; conditions: Homo sapiens, OVCAR-8, ovarian cancer
[22] = system: HCT-15; format: cell-based; conditions: Homo sapiens, HCT-15, colon cancer
[23] = system: SF-295; format: cell-based; conditions: Homo sapiens, SF-295, CNS cancer
[24] = system: SN12C; format: cell-based; conditions: Homo sapiens, renal cancer
[25] = system: OVCAR-3; format: cell-based; conditions: Homo sapiens, OVCAR-3, ovarian cancer
[26] = system: LOX IMVI; format: cell-based; conditions: Homo sapiens, melanoma
[27] = system: COLO 205; format: cell-based, human; conditions: Homo sapiens
[28] = system: UACC-62; format: cell-based; conditions: Homo sapiens, UACC-62, melanoma
[29] = system: NCI-H23; format: cell-based; conditions: Homo sapiens, NCI-H23, NSC lung cancer
[30] = system: OVCAR-4; format: cell-based; conditions: Homo sapiens, OVCAR-4, ovarian cancer
[31] = system: K-562; format: cell-based; conditions: Homo sapiens, K562, K-562, leukemia
[32] = system: SNB-75; format: cell-based; conditions: Homo sapiens, SNB-75, CNS cancer
[33] = system: HL-60 (TB); format: cell-based; conditions: Homo sapiens, leukemia
[34] = system: U251; format: cell-based; conditions: Homo sapiens, U-251, U251, CNS cancer
[35] = system: SK-OV-3; format: cell-based; conditions: Homo sapiens, SK-OV-3, ovarian cancer
[36] = system: HOP-62; format: cell-based; conditions: Homo sapiens, HOP-62, NSC lung cancer
[37] = read-out: LC50 (the source's name)

`O=C(N/N=C/c1cc(Cl)c[nH]1)c1[nH]c2ccc(Br)cc2c1-c1ccccc1` [Derivative 3h, (E)-5-Bromo-N′-((4-chloro-1H-pyrrol-2-yl)methylene)-3-phenyl-1H-indole-2-carbohydrazide] was tested. Which GI50 [1] did it give?
The GI50 was 211 nM.

What about the CC50 [1, 37] of the same compound?
Its CC50 is over 100000 nM.

And the GI50 [2]?
The GI50 was 352 nM.

What about the CC50 [2, 37] of the same compound?
Its CC50 is 27200 nM.

And the GI50 [3]?
Its GI50 is 3910 nM.

And the CC50 [3, 37]?
Its CC50 is 83200 nM.

What about the GI50 [4] of the same compound?
Its GI50 is 446 nM.

And the CC50 [4, 37]?
Its CC50 is over 100000 nM.

What about the GI50 [5] of the same compound?
Its GI50 is 426 nM.

And the CC50 [5, 37]?
Its CC50 is 47600 nM.

And the GI50 [6]?
Its GI50 is 281 nM.

What about the CC50 [6, 37] of the same compound?
The CC50 was 9240 nM.

What about the GI50 [7] of the same compound?
The GI50 was 638 nM.

And the CC50 [7, 37]?
The CC50 was 61900 nM.

And the GI50 [8]?
The GI50 was 430 nM.

And the CC50 [8, 37]?
The CC50 was 47400 nM.

What about the GI50 [9] of the same compound?
Its GI50 is 200 nM.

And the GI50 [10]?
The GI50 was 538 nM.

And the GI50 [11]?
Its GI50 is 296 nM.

What about the CC50 [11, 37] of the same compound?
Its CC50 is 26900 nM.

What about the GI50 [12] of the same compound?
Its GI50 is 1280 nM.

What about the CC50 [12, 37] of the same compound?
The CC50 was over 100000 nM.

What about the GI50 [13] of the same compound?
The GI50 was 582 nM.

And the CC50 [13, 37]?
Its CC50 is 47900 nM.

What about the GI50 [14] of the same compound?
Its GI50 is 260 nM.

What about the CC50 [14, 37] of the same compound?
Its CC50 is 47900 nM.

What about the GI50 [15] of the same compound?
The GI50 was 253 nM.

What about the CC50 [15, 37] of the same compound?
The CC50 was 27500 nM.

And the GI50 [16]?
Its GI50 is 856 nM.

And the CC50 [16, 37]?
The CC50 was 58800 nM.

What about the GI50 [17] of the same compound?
Its GI50 is 255 nM.

And the CC50 [17, 37]?
Its CC50 is 18100 nM.

And the GI50 [18]?
The GI50 was 493 nM.

And the CC50 [18, 37]?
Its CC50 is 32100 nM.

What about the GI50 [19] of the same compound?
Its GI50 is 309 nM.

What about the CC50 [19, 37] of the same compound?
The CC50 was 53500 nM.

And the CC50 ([20]; SK-MEL-5, SK-MEL-5, melanoma, read-out: LC50 (the source's name))?
The CC50 was 3080 nM.

And the GI50 ([20]; SK-MEL-5, melanoma)?
Its GI50 is 228 nM.

What about the GI50 [21] of the same compound?
Its GI50 is 214 nM.

And the CC50 [21, 37]?
The CC50 was 988 nM.

And the GI50 [22]?
The GI50 was 302 nM.

What about the CC50 [22, 37] of the same compound?
Its CC50 is 21900 nM.

And the GI50 [23]?
Its GI50 is 237 nM.

What about the CC50 [23, 37] of the same compound?
The CC50 was 58500 nM.

What about the GI50 [24] of the same compound?
The GI50 was 391 nM.

And the CC50 [24, 37]?
The CC50 was 15300 nM.

And the GI50 [25]?
The GI50 was 270 nM.

What about the CC50 [25, 37] of the same compound?
The CC50 was 19700 nM.

What about the GI50 [26] of the same compound?
Its GI50 is 370 nM.

And the CC50 [26, 37]?
Its CC50 is 16700 nM.

And the CC50 ([27]; COLO 205, COLO 205, colon cancer, read-out: LC50 (the source's name))?
Its CC50 is 1880 nM.

What about the GI50 ([27]; COLO 205, colon cancer) of the same compound?
Its GI50 is 251 nM.

What about the GI50 [28] of the same compound?
Its GI50 is 559 nM.

And the CC50 [28, 37]?
Its CC50 is 66300 nM.

And the GI50 [29]?
The GI50 was 317 nM.

And the CC50 [29, 37]?
Its CC50 is 36500 nM.

What about the GI50 [30] of the same compound?
The GI50 was 555 nM.

And the CC50 [30, 37]?
The CC50 was 34100 nM.

What about the GI50 [31] of the same compound?
The GI50 was 234 nM.

And the CC50 [31, 37]?
Its CC50 is 5640 nM.

What about the GI50 [32] of the same compound?
The GI50 was 247 nM.

And the CC50 [32, 37]?
Its CC50 is 75500 nM.

And the GI50 [33]?
The GI50 was 185 nM.

What about the CC50 [33, 37] of the same compound?
The CC50 was 886 nM.

What about the GI50 [34] of the same compound?
Its GI50 is 349 nM.

What about the CC50 [34, 37] of the same compound?
The CC50 was 24900 nM.

And the GI50 [35]?
The GI50 was 519 nM.

And the CC50 [35, 37]?
The CC50 was 45400 nM.

What about the GI50 [36] of the same compound?
Its GI50 is 408 nM.

And the CC50 [36, 37]?
Its CC50 is 34700 nM.
